According to PMC7583046, “The Paralogue of the Intrinsically Disordered Nuclear Protein 1 Has a Nuclear Localization Sequence that Binds to Human Importin α3” (International Journal of Molecular Sciences, 2020):

What was measured:
[1] = target: T1, ∆Impα3 (Impα3 without IBB, residues 64-521) (Homo sapiens, UniProt O00629); assay: Isothermal titration calorimetry, binding to ∆Impα3; details: Tris 50 mM pH 8, 298 K
T1 construct: codon-optimized, His-tagged ∆Impα3 (residues 64-521) were carried out using BL21 (DE3) cells; His-tag; made in house; host or cells: E. coli BL21 (DE3)
T1 sequence (O00629 64-521): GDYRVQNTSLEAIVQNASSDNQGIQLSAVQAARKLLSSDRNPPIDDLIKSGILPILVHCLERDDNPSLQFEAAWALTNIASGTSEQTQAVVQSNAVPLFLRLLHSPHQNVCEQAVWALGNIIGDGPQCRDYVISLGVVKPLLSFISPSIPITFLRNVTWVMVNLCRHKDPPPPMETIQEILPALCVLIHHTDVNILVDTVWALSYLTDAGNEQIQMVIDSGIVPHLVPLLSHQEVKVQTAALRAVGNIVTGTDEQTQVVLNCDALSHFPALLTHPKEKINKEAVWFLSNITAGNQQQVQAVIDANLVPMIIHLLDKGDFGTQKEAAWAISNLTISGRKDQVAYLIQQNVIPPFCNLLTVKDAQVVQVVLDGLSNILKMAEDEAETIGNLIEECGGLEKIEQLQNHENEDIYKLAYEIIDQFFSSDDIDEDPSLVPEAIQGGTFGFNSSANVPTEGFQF
Text: (§1) Figure 4 Binding of NLS-NUNPR1L to both importin species: (A) Titration curve monitoring the changes of Impα3 fluorescence at 340 nm in the presence of NLS-NUPR1L, after excitation at 280 nm. (B) Titration curve monitoring the changes of ∆Impα3 fluorescence at 340 nm in the presence of NLS-NUPR1L, after excitation at 280 nm. […] (C) Calorimetric binding isotherms (ligand normalized heat effect per injection as a function of the ligand/protein molar ratio) for the interaction of NLS-NUPR1L with Impα3 (left) and ∆Impα3 (right) are shown, with the thermogram (raw thermal power data as a function of time) at the top of each panel. Binding parameters were estimated by non-linear least squares regression data analysis of the interaction isotherms applying a single ligand binding site model implemented in Origin 7.0. (OriginLab, Northampton, MA, USA).
(§2) The experimental set-up and data processing of ITC experiments have been described previously. […] The temperature for all experiments was 298 K. The experiments were analyzed applying a model considering a single ligand binding site (1:1 stoichiometry for the NLS-NUPR1L/Impα3 (or ∆Impα3) interaction) implemented in Origin 7.0 (OriginLab, Northampton, MA, USA).

[2] = target: T2, human importin α3 (Impα3) (Homo sapiens, UniProt O00629); assay: Isothermal titration calorimetry, binding to Impα3; details: Tris 50 mM pH 8, 298 K
T2 construct: Human importin α3 isoform (residues 1–521); His-tag (N); made in house; host or cells: E. coli BL21 (DE3)
T2 sequence (O00629 1-521): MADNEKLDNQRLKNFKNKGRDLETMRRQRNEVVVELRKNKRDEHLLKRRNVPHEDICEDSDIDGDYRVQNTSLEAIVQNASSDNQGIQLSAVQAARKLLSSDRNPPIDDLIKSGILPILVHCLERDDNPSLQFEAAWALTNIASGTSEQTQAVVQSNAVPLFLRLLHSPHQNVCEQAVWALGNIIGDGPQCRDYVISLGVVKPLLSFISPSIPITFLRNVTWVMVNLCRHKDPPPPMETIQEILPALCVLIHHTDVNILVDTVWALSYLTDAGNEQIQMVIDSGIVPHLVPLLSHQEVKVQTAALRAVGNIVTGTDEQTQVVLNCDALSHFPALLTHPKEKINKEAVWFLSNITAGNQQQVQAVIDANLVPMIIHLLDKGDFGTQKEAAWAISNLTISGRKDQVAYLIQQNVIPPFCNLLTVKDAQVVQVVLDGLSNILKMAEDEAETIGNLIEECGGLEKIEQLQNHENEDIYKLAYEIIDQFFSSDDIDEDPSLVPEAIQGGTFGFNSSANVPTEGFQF
Text: as §1, §2

Impα3 = details: 35 μM peptide, pH 7.2, 50 mM deuterated Tris, 1-1 echo sequence
Experimental: The NMR experiments were acquired at 283 K on a Bruker Avance spectrometer (Bruker GmbH, Karlsruhe, Germany), equipped with a triple resonance probe and z-pulse field gradients. All experiments with NLS-NUPR1L were carried out at pH 7.2, 50 mM deuterated Tris buffer (not corrected for isotope effects). The spectra were calibrated with TSP ((trimethylsilyl)-2,2,3,3-tetradeuteropropionic acid), by considering pH-dependent changes of its chemical-shifts; probe temperature was calibrated with methanol.
Measurements of the T2 (transverse relaxation time) provide a convenient method to determine the molecular mass of a macromolecule, as the correlation time, τc, is approximately equal to 1/(5 × T2). We measured the T2 of one of the indole protons (Section 2.2.1) for NLS-NUPR1L (at 35 μM concentration) in isolation and in the presence of Impα3 (at a final concentration of 7 μM) with the 1-1 echo sequence. The calculation of the T2 was carried out as described.

[3] = Aggregation / self-association tendency; assay type: physicochemical; details: isolated peptide, refers to Section 2.2.1
[4] = DOSY translational diffusion NMR; assay type: physicochemical; details: 120 μM peptide, 283 K
Experimental: The peptide concentration in DOSY experiment was 120 μM, and 128 scans were acquired, where the gradient strength was varied linearly. Translational self-diffusion measurements were performed with the pulsed-gradient spin-echo sequence in the presence of 100% D2O. Experimental details have been described elsewhere. The gradient strength was varied in sixteen linear steps between 2 and 95% of the total power of the gradient coil. The gradient strength was calibrated using the value of the translational diffusion coefficient, D, for the residual proton water signal in a sample containing 100% D2O in a 5 mm tube [53]. The length of the gradient was 2.25 ms, the time between the two pulse gradients in the pulse sequence was 200 ms, and the recovery delay between the bipolar gradients was 100 μs. The methyl groups with signals between 1.0 and 0.80 ppm were used for peak integration (Section 2.2.1). Fitting of the exponential curves, obtained from experimental data as previously described, was carried out with KaleidaGraph version 3.5 (Synergy Software, Reading, PA, USA). A final concentration of 1% of dioxane, which was assumed to have a hydrodynamic radius Rh = 2.12 Å [53], was added to the peptide solution.

For “Ac-RTRREQALRTNWPAPGGHERKVAQ-NH2 [NLS-NUPR1L]”, the “n, stoichiometry (ITC), ∆Impα3” value [1] was 0.75 ± 0.06, the “∆H (ITC), ∆Impα3” value [1] was -2.4 ± 0.5 kcal/mol and the “n, stoichiometry (ITC), Impα3” value [2] was 1.04 ± 0.05. For the same substance, the “∆H (ITC), Impα3” value [2] was -3.1 ± 0.5 kcal/mol, the “T2 of most up-field indole signal, in the presence of Impα3” value (Impα3; 7 μM Impα3, 283 K) was 36.7 ms and the “T2 of most up-field indole signal, isolated peptide” value (Impα3; 283 K) was 62.2 ms. The tendency to aggregate [3] was “did not have any tendency to aggregate”, the “translational diffusion coefficient D” value ([4]; 100% D2O, pH 7.2, 50 mM Tris) was 1.74 ± 0.05 × 10^−6 cm^2 s^−1 and the association state [4] was “monomeric”. For the same substance, the “hydrodynamic radius Rh” value ([4]; estimated by comparison with dioxane (1%)) was 12 ± 2 Å.
